Values of other authors in US11338162B2 (priority 2013, dated 2022).

Tests used:
rat = details: in vivo
rabbit = details: in vivo, topical or ocular
Lepomis macrochirus = details: in vivo
[1] = tested on: Leuciscus idus (Golden orfe); details: in vivo
[2] = tested on: Daphnia magna (Water flea); details: in vivo
[3] = tested on: Desmodesmus subspicatus (green algae); details: 24 h
Pseudomonas putida = details: 16 h

CCCCOCCOCCO [DGME, diethylene glycol monobutyl ether]
LD50 Oral - rat (rat): 5,660 mg/kg | LD50 Dermal - rabbit (rabbit): 2,700 mg/kg | dermal LD50 in rabbits (rabbit): 2700 mg/kg | Toxicity to fish LC50 (Lepomis macrochirus): 1,300 mg/l | Toxicity to fish LC50 [1]: >1,000 mg/l | Toxicity to daphnia and other aquatic invertebrates LC50 - Daphnia magna (Water flea) [2]: 1,950 mg/l | Toxicity to algae IC50 - Desmodesmus subspicatus (green algae) [3]: >100 mg/l-24 h | Toxicity to bacteria LC50 - Pseudomonas putida (Pseudomonas putida): 1,170 mg/l-16 h
